Measurements from ChEMBL document CHEMBL1221281, “Discovery of 2-(4-((1H-1,2,4-triazol-1-yl)methyl)-5-(4-bromophenyl)-1-(2-chlorophenyl)-1H-pyrazol-3-yl)-5-tert-butyl-1,3,4-thiadiazole (GCC2680) as a potent, selective and orally efficacious cannabinoid-1 receptor antagonist” (Bioorg Med Chem, 2010).
Activity calls are given as the source filed them. The rule behind the calls is not given here.

Tests used:
[1] = biological target: T1, Cytochrome P450 1A2 (Homo sapiens, UniProt P05177); experiment: Inhibition of CYP1A2 in human liver microsomes after 30 mins; assay type: ADME, Microsome
T1 sequence (P05177 whole entry): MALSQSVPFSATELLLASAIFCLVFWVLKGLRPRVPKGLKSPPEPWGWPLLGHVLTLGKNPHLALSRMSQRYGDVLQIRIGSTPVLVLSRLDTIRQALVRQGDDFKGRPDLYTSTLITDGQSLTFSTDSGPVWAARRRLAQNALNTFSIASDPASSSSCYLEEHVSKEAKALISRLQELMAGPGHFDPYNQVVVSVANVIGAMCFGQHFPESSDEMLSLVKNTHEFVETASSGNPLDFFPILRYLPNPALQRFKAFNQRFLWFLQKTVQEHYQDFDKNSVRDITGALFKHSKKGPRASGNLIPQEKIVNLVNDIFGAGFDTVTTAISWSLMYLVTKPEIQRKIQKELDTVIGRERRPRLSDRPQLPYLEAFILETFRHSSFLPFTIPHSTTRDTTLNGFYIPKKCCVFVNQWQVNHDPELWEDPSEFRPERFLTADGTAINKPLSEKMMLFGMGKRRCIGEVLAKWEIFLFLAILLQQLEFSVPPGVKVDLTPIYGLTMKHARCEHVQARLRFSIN

[2] = Selectivity ratio of IC50 for human CB2 receptor to IC50 for CB1 receptor in Sprague-Dawley rat cerebellum; assay type: tissue-based
[3] = biological target: Cytochrome P450 2D6 (Homo sapiens, UniProt P10635); experiment: Inhibition of CYP2D6 in human liver microsomes after 30 mins; assay type: ADME, Microsome
Cytochrome P450 2D6, sequence (P10635 whole entry): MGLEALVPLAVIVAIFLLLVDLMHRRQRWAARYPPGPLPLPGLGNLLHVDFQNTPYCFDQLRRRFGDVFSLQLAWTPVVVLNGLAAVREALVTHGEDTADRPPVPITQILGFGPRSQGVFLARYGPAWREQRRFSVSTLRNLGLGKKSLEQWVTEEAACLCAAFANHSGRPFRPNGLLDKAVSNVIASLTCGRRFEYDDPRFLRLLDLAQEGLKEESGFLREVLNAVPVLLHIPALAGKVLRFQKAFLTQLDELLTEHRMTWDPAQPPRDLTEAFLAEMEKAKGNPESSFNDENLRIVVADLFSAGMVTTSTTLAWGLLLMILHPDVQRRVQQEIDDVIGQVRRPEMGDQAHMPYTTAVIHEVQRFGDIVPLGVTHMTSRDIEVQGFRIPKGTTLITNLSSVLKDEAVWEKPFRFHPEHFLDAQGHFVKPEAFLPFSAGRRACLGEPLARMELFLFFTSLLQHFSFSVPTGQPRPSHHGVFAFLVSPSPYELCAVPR

[4] = Clearance in Sprague-Dawley rat at 1 mg/kg, iv; assay type: ADME, organism-based; set-up: dose 1 mg/kg, route intravenous; details: in vivo
[5] = system: Rattus norvegicus; experiment: Acute toxicity in rat assessed as mortality at 250 mg/kg, po qd for 7 days; assay type: organism-based; set-up: dose 250 mg/kg, route oral; details: in vivo, 168 h
[6] = system: Mus musculus; experiment: Antidiabetic activity in db/db mouse at 10 mg/kg, po qd for 14 days; assay type: functional, organism-based; set-up: dose 10 mg/kg
[7] = biological target: Cannabinoid receptor 1 (Rattus norvegicus, UniProt P20272)
Cannabinoid receptor 1, sequence (P20272 whole entry): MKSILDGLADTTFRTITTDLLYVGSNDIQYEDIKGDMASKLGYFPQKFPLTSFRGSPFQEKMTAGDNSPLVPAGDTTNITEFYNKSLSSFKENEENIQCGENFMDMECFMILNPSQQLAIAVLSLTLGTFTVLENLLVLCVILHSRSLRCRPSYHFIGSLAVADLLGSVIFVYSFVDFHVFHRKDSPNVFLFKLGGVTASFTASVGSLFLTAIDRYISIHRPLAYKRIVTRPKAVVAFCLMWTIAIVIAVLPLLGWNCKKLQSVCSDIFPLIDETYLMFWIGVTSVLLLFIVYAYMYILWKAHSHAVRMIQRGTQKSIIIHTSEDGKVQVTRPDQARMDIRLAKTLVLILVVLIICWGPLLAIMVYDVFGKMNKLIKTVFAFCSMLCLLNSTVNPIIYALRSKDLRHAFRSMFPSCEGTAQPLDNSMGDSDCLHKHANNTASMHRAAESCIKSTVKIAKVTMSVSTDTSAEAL
Description: Displacement of [3H]CP-55940 from CB1 receptor in Sprague-Dawley rat cerebellum after 1 hr by liquid scintillation counting

[8] = system: Vero; experiment: Cytotoxicity against african green monkey Vero cells; assay type: cell-based; details: Chlorocebus sabaeus
[9] = system: Mus musculus; experiment: Antiobesity activity in diet-induced obesity C57BL/6 mouse model assessed as reduction of body weight at 10 mg/kg, po qd for 13 days; assay type: functional; set-up: scale not given: the % may be the effect or the level left
[10] = system: HCT-116; experiment: Cytotoxicity against human HCT116 cells; assay type: cell-based
[11] = system: Rattus norvegicus; experiment: Acute toxicity in rat assessed as mortality at 500 mg/kg, po qd for 7 days; assay type: organism-based; set-up: dose 500 mg/kg, route oral; details: in vivo, 168 h
[12] = system: Rattus norvegicus; experiment: Antiobesity activity in diet-induced obesity Sprague-Dawley rat model assessed as reduction of body weight administered at 10 mg/kg, po qd for 13 days; assay type: functional; set-up: scale not given: the % may be the effect or the level left
[13] = Half life in Sprague-Dawley rat at 1 mg/kg, iv; assay type: ADME, organism-based; set-up: dose 1 mg/kg, route intravenous; details: in vivo
[14] = system: Mus musculus; experiment: Antiobesity activity in diet-induced obesity C57BL/6 mouse model assessed as reduction of body weight at 3 mg/kg, po qd for 13 days; assay type: functional
[15] = biological target: Cannabinoid receptor 2 (Homo sapiens, UniProt P34972); experiment: Displacement of [3H]WIN-55212-2 from human CB2 receptor expressed in CHO-K1 cells after 1 hr by liquid scintillation counting; assay type: cell-based
Cannabinoid receptor 2, sequence (P34972 whole entry): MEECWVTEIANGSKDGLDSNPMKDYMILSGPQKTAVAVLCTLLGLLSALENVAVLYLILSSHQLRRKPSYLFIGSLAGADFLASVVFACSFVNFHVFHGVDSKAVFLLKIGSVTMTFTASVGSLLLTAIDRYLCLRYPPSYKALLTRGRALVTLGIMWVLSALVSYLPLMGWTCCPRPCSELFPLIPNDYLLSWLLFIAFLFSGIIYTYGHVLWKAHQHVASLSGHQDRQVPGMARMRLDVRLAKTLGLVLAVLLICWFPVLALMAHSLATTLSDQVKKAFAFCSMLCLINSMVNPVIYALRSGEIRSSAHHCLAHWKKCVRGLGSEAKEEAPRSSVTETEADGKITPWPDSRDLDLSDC

[16] = system: Mus musculus; experiment: Antiobesity activity in diet-induced obesity C57BL/6 mouse model assessed as reduction of body weight at 20 mg/kg, po qd for 13 days; assay type: functional; set-up: scale not given: the % may be the effect or the level left
[17] = biological target: Cytochrome P450 3A4 (Homo sapiens, UniProt P08684); experiment: Inhibition of CYP3A4 in human liver microsomes after 30 mins; assay type: ADME, Microsome
Cytochrome P450 3A4, sequence (P08684 whole entry): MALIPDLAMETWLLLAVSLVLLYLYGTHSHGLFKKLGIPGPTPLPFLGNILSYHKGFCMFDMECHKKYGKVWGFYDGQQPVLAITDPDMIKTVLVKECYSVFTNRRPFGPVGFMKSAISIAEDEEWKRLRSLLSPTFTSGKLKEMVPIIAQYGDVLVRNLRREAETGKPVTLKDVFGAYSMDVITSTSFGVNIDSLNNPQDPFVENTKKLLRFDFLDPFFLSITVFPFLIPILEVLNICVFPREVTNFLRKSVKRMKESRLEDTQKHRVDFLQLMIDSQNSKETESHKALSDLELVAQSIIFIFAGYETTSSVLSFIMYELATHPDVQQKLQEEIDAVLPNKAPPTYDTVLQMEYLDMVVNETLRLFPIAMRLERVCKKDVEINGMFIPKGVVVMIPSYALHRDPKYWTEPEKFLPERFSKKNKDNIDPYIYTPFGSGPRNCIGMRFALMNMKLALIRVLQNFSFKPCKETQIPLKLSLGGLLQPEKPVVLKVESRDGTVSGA

[18] = system: Rattus norvegicus; experiment: Acute toxicity in po dosed rat; assay type: organism-based; details: in vivo
[19] = system: Mus musculus; experiment: Antiobesity activity in po dosed diet-induced obesity C57BL/6 mouse model assessed as reduction of body weight administered qd for 13 days; assay type: functional, organism-based
[20] = Acute toxicity in po dosed rat assessed as mortality; assay type: organism-based; details: in vivo
[21] = system: Rattus norvegicus; experiment: Acute toxicity in rat assessed as mortality at 1500 mg/kg, po; assay type: organism-based; set-up: dose 1500 mg/kg, route oral; details: in vivo
[22] = system: Rattus norvegicus; experiment: Acute toxicity in rat assessed as mortality at 125 mg/kg, po qd for 7 days; assay type: organism-based; set-up: dose 125 mg/kg, route oral; details: in vivo, 168 h
[23] = Cytotoxicity against human HuH7 cells; assay type: cell-based; details: Huh-7
[24] = Tmax in Sprague-Dawley rat at 5 mg/kg, po; assay type: ADME, organism-based; set-up: dose 5 mg/kg, route oral; details: in vivo
[25] = system: HEK293; experiment: Cytotoxicity against human HEK293 cells; assay type: cell-based
[26] = biological target: Cytochrome P450 2C9 (Homo sapiens, UniProt P11712); experiment: Inhibition of CYP2C9 in human liver microsomes after 30 mins; assay type: ADME, Microsome
Cytochrome P450 2C9, sequence (P11712 whole entry): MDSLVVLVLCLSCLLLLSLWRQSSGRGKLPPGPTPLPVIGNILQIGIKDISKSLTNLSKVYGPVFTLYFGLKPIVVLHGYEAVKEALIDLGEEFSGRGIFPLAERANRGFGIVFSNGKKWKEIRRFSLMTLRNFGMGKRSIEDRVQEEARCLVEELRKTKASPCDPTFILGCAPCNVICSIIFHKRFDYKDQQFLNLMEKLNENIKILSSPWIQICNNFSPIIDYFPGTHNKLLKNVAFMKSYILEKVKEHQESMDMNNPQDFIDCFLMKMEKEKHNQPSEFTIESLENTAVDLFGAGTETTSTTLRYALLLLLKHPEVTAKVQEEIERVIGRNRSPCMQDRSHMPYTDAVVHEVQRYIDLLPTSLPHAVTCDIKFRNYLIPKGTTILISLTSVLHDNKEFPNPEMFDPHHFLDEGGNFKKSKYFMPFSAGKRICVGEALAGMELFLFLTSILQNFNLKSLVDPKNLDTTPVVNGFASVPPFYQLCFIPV

[27] = Ratio of drug level in brain to plasma in Sprague-Dawley rat; assay type: ADME
[28] = Half life in Sprague-Dawley rat at 5 mg/kg, po; assay type: ADME, organism-based; set-up: dose 5 mg/kg, route oral; details: in vivo
[29] = Oral bioavailability in Sprague-Dawley rat at 5 mg/kg, po; assay type: ADME, organism-based; details: in vivo
[30] = system: Rattus norvegicus; experiment: AUC (0 to infinity) in Sprague-Dawley rat at 5 mg/kg, po; assay type: ADME, organism-based, Plasma; set-up: time infinity, dose 5 mg/kg, route oral; details: in vivo
[31] = biological target: Voltage-gated inwardly rectifying potassium channel KCNH2 (Homo sapiens, UniProt Q12809); experiment: Inhibition of human ERG at holding potential of -80 mV to +40 mV
Voltage-gated inwardly rectifying potassium channel KCNH2, sequence (Q12809 whole entry): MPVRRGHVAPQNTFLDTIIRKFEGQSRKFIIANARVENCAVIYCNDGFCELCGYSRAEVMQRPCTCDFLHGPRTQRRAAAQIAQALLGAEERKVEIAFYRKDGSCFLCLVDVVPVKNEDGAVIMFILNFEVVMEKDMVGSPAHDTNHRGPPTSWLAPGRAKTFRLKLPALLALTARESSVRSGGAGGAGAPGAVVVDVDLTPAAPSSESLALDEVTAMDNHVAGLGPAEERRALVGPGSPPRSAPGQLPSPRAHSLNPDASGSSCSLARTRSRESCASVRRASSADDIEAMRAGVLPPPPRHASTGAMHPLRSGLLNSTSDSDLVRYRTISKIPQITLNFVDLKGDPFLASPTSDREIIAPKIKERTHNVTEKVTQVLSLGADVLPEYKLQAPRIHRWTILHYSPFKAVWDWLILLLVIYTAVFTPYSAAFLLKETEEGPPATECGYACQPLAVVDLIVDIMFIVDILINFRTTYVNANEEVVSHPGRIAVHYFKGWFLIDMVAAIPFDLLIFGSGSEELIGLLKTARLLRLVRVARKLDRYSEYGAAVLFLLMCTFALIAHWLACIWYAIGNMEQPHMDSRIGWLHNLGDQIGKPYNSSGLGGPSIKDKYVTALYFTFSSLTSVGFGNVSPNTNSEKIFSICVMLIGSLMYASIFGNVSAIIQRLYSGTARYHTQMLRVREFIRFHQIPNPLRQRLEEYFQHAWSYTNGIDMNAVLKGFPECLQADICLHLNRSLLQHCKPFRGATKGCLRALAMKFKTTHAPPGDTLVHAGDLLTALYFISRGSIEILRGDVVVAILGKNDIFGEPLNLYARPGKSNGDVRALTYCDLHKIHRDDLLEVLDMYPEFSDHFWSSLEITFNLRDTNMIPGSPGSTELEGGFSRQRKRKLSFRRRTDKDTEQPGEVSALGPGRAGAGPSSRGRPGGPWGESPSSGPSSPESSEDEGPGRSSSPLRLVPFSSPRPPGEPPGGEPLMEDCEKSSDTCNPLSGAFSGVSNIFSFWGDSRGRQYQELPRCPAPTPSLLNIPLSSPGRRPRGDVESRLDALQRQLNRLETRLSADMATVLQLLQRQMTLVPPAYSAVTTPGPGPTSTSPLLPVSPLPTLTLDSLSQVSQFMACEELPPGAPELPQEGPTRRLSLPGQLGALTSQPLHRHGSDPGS

[32] = system: Mus musculus; experiment: Antiobesity activity in diet-induced obesity C57BL/6 mouse model assessed as reduction of body weight at 10 mg/kg, po qd for 14 days; assay type: functional; set-up: scale not given: the % may be the effect or the level left
[33] = system: Mus musculus; experiment: Antidiabetic activity in diet-induced obesity mouse model at 10 mg/kg, po qd for 14 days; assay type: functional, organism-based; set-up: dose 10 mg/kg
[34] = system: Rattus norvegicus; experiment: Acute toxicity in rat assessed as mortality at 2000 mg/kg, po; assay type: organism-based; set-up: dose 2000 mg/kg, route oral; details: in vivo
[35] = system: Nucleic Acid; experiment: Induction of DNA damage up to 50 uM after 2 hrs by comet assay; assay type: nucleic-acid assay
[36] = system: Rattus norvegicus; experiment: AUC (0 to infinity) in Sprague-Dawley rat at 1 mg/kg, iv; assay type: ADME, organism-based, Plasma; set-up: time infinity, dose 1 mg/kg, route intravenous; details: in vivo
[37] = system: Mus musculus; experiment: Antiobesity activity in po dosed diet-induced obesity C57BL/6 mouse model assessed as reduction mean white adipocytes diameter qd for 14 days; assay type: functional, organism-based
[38] = system: Rattus norvegicus; experiment: Clast in Sprague-Dawley rat at 1 mg/kg, iv; assay type: ADME, organism-based; set-up: dose 1 mg/kg, route intravenous; details: in vivo
[39] = system: Rattus norvegicus; experiment: Acute toxicity in rat assessed as mortality at 1000 mg/kg, po qd for 7 days; assay type: organism-based; set-up: dose 1000 mg/kg, route oral; details: in vivo, 168 h
[40] = Cmax in Sprague-Dawley rat at 5 mg/kg, po; assay type: ADME, organism-based; set-up: dose 5 mg/kg, route oral; details: in vivo
[41] = Cmax in Sprague-Dawley rat at 1 mg/kg, iv; assay type: ADME, organism-based; set-up: dose 1 mg/kg, route intravenous; details: in vivo
[42] = system: Rattus norvegicus; experiment: Clast in Sprague-Dawley rat at 5 mg/kg, po; assay type: ADME, organism-based; set-up: dose 5 mg/kg, route oral; details: in vivo
[43] = Mutagenic activity in Salmonella Typhimurium TA100 assessed as number of spontaneous and drug-induced revertants after 48 hrs by Ames test; assay type: toxicity; details: salmonella enterica subsp. enterica serovar typhimurium
[44] = system: Mus musculus; experiment: Antidiabetic activity in ob/ob mouse at 10 mg/kg, po qd for 14 days; assay type: functional, organism-based; set-up: dose 10 mg/kg

## CC(C)(C)c1nnc(-c2nn(-c3ccccc3Cl)c(-c3ccc(Br)cc3)c2Cn2cncn2)s1
[1]
  IC50: > 20 µM
[2]
  Ratio IC50: 807
[3]
  IC50: > 20 µM
[4]
  clearance: 10.7 mL/min/kg
[5]
  Activity: Non-toxic
[6]
  Activity: Active
[7]
  IC50: 0.000681 µM
[8]
  EC50: > 100 µM
[9]
  Activity: 34.9%
[10]
  EC50: > 100 µM
[11]
  Activity: Non-toxic
[12]
  Activity: 15.59%
[13]
  half-life: 5.3 h
[14]
  Activity: Active
[15]
  IC50: 0.549 µM
[16]
  Activity: 38.06%
[17]
  IC50: > 20 µM
[18]
  Activity: 125 mg/kg
[19]
  Activity: Dose-dependent effect
[20]
  LD50: > 2000 mg/kg
[21]
  Activity: Non-toxic
[22]
  Activity: Non-toxic
[23]
  EC50: > 100 µM
[24]
  Tmax: 1 h
[25]
  EC50: > 100 µM
[26]
  IC50: > 20 µM
[27]
  BPR: 58%
[28]
  half-life: 7.11 h
[29]
  bioavailability: 61.7%
[30]
  AUC: 369.72 min/µg/mL
[31]
  IC50: 10.5 µM
[32]
  Activity: 32.55%
[33]
  Activity: Active
[34]
  Activity: Non-toxic
[35]
  Activity: Non-toxic
[36]
  AUC: 119.9 min/µg/mL
[37]
  Activity: Dose-dependent effect
[38]
  Clast: 50 ng/mL
[39]
  Activity: Non-toxic
[40]
  Cmax: 1530 ng/mL
[41]
  Cmax: 2500 ng/mL
[42]
  Clast: 30 ng/mL
[43]
  Activity: Non-toxic
[44]
  Activity: Active
